In the RepoRT retention time repository:

Assay: RP, Waters ACQUITY UPLC HSS T3, 0.1 mL/min; A: water + 0.01% formic acid; B: acetonitrile + 0.01% formic acid; gradient (min/%B) 0/10 38/45 45/45 55/0 60/0
Conditions: stereoisomer not certain

Structure (SMILES)	LC retention time
CNC(=O)Nc1ccc(Cl)c(Cl)c1 [1-(3,4-Dichlorophenyl)-3-methylurea]	20.5 min
NC(=O)Nc1ccc(Cl)c(Cl)c1 [1-(3,4-Dichlorophenyl)urea]	16.9 min
Cc1cc(Cl)ccc1OCC(=O)O [2,4-mcpa]	17.2 min
Oc1ccccc1-c1ccccc1 [2-Phenylphenol]	30.2 min
Cc1ccc(C(=O)O)c(Cl)c1 [2-chloro-4-methylbenzoic acid]	44.3 min
Nc1ccc(O)cc1 [4-Aminophenol]	1.3 min
NCCc1c[nH]c2ccc(O)cc12 [5-Hydroxytryptamine]	4.3 min
CCOCN(C(=O)CCl)c1c(C)cccc1CC [Acetochlor]	40.6 min
CC(=O)OCC[N+](C)(C)C [Acetylcholine]	1.39 min
CC(=O)Oc1ccccc1C(=O)O [Acetylsalicylic acid]	8.55 min
COc1cc2c(c3oc(=O)c4c(c13)CCC4=O)C1C=COC1O2 (stereo not drawn) [Aflatoxin B1]	17.5 min
CCc1cccc(CC)c1N(COC)C(=O)CCl [Alachlor]	39.4 min
CC12CCC(=O)C=C1CCC1C2C(O)CC2(C=O)C(C(=O)CO)CCC12 (stereo not drawn) [Aldosterone]	13.8 min
CC(=O)C1CCC2C3CCC4CC(O)CCC4(C)C3CCC12C (stereo not drawn) [Allopregnanolone]	43.9 min
CCNc1nc(NC(C)C)nc(SC)n1 [Ametryn]	20.1 min
COc1cc(OC)nc(NC(=O)NS(=O)(=O)N(C)S(C)(=O)=O)n1 [Amidosulfuron]	21.2 min
Nc1nc2ccccc2[nH]1 [Aminobenzimidazole]	4.74 min
CC12CCC3C(CCC4=CC(=O)CCC43C)C1CCC2=O (stereo not drawn) [Androstenedione]	31.5 min
Nc1ccccc1 [Aniline]	3.1 min
CCCCCC=CCC=CCC=CCC=CCCCC(=O)O [Arachidonic Acid]	47 min
CCNc1nc(N)nc(Cl)n1 [Atrazine-desisopropyl]	6.98 min
COC=C(C(=O)OC)c1ccccc1Oc1cc(Oc2ccccc2C#N)ncn1 [Azoxystrobin]	38 min
CCC(Oc1ccc(F)c(C(F)(F)F)c1)C(=O)NCc1ccccc1 (stereo not drawn) [Beflubutamid]	42.7 min
Cn1cc(C(=O)Nc2ccc(F)cc2-c2ccc(Cl)c(Cl)c2)c(C(F)F)n1 [Bixafen]	42.2 min

Structure (SMILES)	LC retention time
O=C(Nc1ccccc1-c1ccc(Cl)cc1)c1cccnc1Cl [Boscalid]	38 min
CCC(C)n1c(=O)[nH]c(C)c(Br)c1=O (stereo not drawn) [Bromacil]	14.3 min
Cn1c(=O)c2c(ncn2C)n(C)c1=O [Caffeine]	5.71 min
NC(=O)N1c2ccccc2C=Cc2ccccc21 [Carbamazepine]	18 min
COC(=O)Nc1nc2ccccc2[nH]1 [Carbendazim]	5.69 min
CCNC(=O)C(C)OC(=O)Nc1ccccc1 (stereo not drawn) [Carbetamide]	13.5 min
CNC(=O)Oc1cccc2c1OC(C)(C)C2 [Carbofuran]	18.6 min
CNC(=O)c1cc(Cl)cc(C)c1NC(=O)c1cc(Br)nn1-c1ncccc1Cl [Chlorantraniliprole]	30.9 min
Nc1cnn(-c2ccccc2)c(=O)c1Cl [Chloridazon]	9.25 min
COP(=S)(OC)Oc1nc(Cl)c(Cl)cc1Cl [Chlorpyrifos-methyl]	43.9 min
CCOP(=S)(OCC)Oc1nc(Cl)c(Cl)cc1Cl [Chlorpyrifos]	45.5 min
Cc1ccc(NC(=O)N(C)C)cc1Cl [Chlortoluron]	20.5 min
CNC(=N[N+](=O)[O-])NCc1cnc(Cl)s1 [Clothianidin]	7.99 min
COc1ccc2c3c1OC1C(O)C=CC4C(C2)N(C)CCC341 (stereo not drawn) [Codeine]	5.12 min
CC12CCC(=O)C=C1CCC1C2C(=O)CC2(C)C1CCC2(O)C(=O)CO (stereo not drawn) [Cortisone]	16.1 min
CN1C(=O)CCC1c1ccc[n+](C2OC(C(=O)[O-])C(O)C(O)C2O)c1 (stereo not drawn) [Cotinine glucuronide]	1.4 min
CN1C(=O)CCC1c1cccnc1 (stereo not drawn) [Cotinine]	4.31 min
Cc1cc(C2CC2)nc(Nc2ccccc2)n1 [Cyprodinil]	33.2 min
CC12CCC3C(CC=C4CC(O)CCC43C)C1CCC2=O (stereo not drawn) [Dehydroepiandrosterone]	31.7 min
CCOP(=S)(OCC)Oc1cc(C)nc(C(C)C)n1 [Diazinon]	43.4 min
CC(Oc1ccc(Cl)cc1Cl)C(=O)O (stereo not drawn) [Dichlorprop]	10 min
O=C(O)Cc1ccccc1Nc1c(Cl)cccc1Cl [Diclofenac]	39.6 min
COCC(C)N(C(=O)CCl)c1c(C)csc1C (stereo not drawn) [Dimethenamid]	32.5 min
COc1ccc(C(=CC(=O)N2CCOCC2)c2ccc(Cl)cc2)cc1OC [Dimethomorph]	32.7 min

Structure (SMILES)	LC retention time
COP(=S)(S)OC [Dimethyldithiophosphate]	2.95 min
CN(C)C(=O)Nc1ccc(Cl)c(Cl)c1 [Diuron]	23.7 min
NCCc1ccc(O)c(O)c1 [Dopamine]	3.88 min
CNCC(O)c1ccc(O)c(O)c1 (stereo not drawn) [Epinephrine]	4.39 min
CC12CCC3c4cc(O)c(O)cc4CCC3C1CCC2O (stereo not drawn) [Estradiol-2-hydroxy]	21.5 min
CC12CCC3c4ccc(O)cc4CCC3C1CC(O)C2O (stereo not drawn) [Estriol]	11.7 min
CC12CCC3c4cc(O)c(O)cc4CCC3C1CCC2=O (stereo not drawn) [Estrone-2-hydroxy]	24.6 min
CC12CCC3c4ccc(O)cc4CCC3C1CCC2=O (stereo not drawn) [Estrone]	31.6 min
CCS(=O)(=O)c1nnc(N(C)C(=O)NC)s1 [Ethidimuron]	9.06 min
C#CC1(O)CCC2C3CCc4cc(O)ccc4C3CCC21C (stereo not drawn) [Ethinylestradiol]	31.6 min
CSC1=NC(C)(c2ccccc2)C(=O)N1Nc1ccccc1 (stereo not drawn) [Fenamidone]	35.8 min
CC(Cc1ccc(C(C)(C)C)cc1)CN1CCCCC1 (stereo not drawn) [Fenpropidine]	26.2 min
CC(Cc1ccc(C(C)(C)C)cc1)CN1CC(C)OC(C)C1 (stereo not drawn) [Fenpropimorph]	30.1 min
N#CCNC(=O)c1cnccc1C(F)(F)F [Flonicamid]	7.52 min
CC(C)N(C(=O)COc1nnc(C(F)(F)F)s1)c1ccc(F)cc1 [Flufenacet]	41.1 min
CNCCC(Oc1ccc(C(F)(F)F)cc1)c1ccccc1 (stereo not drawn) [Fluoxetine]	23.7 min
Nc1c(Cl)c(F)nc(OCC(=O)O)c1Cl [Fluroxypyr]	14.4 min
CNC1=C(c2cccc(C(F)(F)F)c2)C(=O)C(c2ccccc2)O1 (stereo not drawn) [Flurtamone]	34.1 min
COc1cc(OC)nc(NC(=O)NS(=O)(=O)c2cc(NC=O)ccc2C(=O)N(C)C)n1 [Foramsulfuron]	17.9 min
CCOP(=O)(SC(C)CC)N1CCSC1=O (stereo not drawn) [Fosthiazate]	22.2 min
CC12CCC(=O)C=C1CCC1C2C(O)CC2(C)C1CCC2(O)C(=O)CO (stereo not drawn) [Hydrocortisone]	15.9 min
O=C(O)Cc1c[nH]c2ccc(O)cc12 [Hydroxyindoleacetic acid]	5.71 min
CC(C)Cc1ccc(C(C)C(=O)O)cc1 (stereo not drawn) [Ibuprofen]	39.9 min
COC(=O)c1ccc(C)cc1C1=NC(C)(C(C)C)C(=O)N1 (stereo not drawn) [Imazamethabenz-methyl]	14.2 min

Structure (SMILES)	LC retention time
COCc1cnc(C2=NC(C)(C(C)C)C(=O)N2)c(C(=O)O)c1 (stereo not drawn) [Imazamox]	9.34 min
CC(C)C1(C)N=C(c2nc3ccccc3cc2C(=O)O)NC1=O (stereo not drawn) [Imazaquin]	16.3 min
O=[N+]([O-])/N=C1\NCCN1Cc1ccc(Cl)nc1 [Imidacloprid]	8.57 min
COC(=O)c1ccc(I)cc1S(=O)(=O)NC(=O)Nc1nc(C)nc(OC)n1 [Iodosulfuron-methyl]	30.4 min
CC(C)NC(=O)N1CC(=O)N(c2cc(Cl)cc(Cl)c2)C1=O [Iprodione]	39.9 min
CSc1nc(NC2CC2)nc(NC(C)(C)C)n1 [Irgarol]	29.9 min
CC(C)c1ccc(NC(=O)N(C)C)cc1 [Isoproturon]	23.4 min
CCC(C)(CC)c1cc(NC(=O)c2c(OC)cccc2OC)on1 [Isoxaben]	39 min
CS(=O)(=O)c1cc(C(F)(F)F)ccc1C(=O)c1cnoc1C1CC1 [Isoxaflutole]	35.3 min
CC(C(=O)O)c1cccc(C(=O)c2ccccc2)c1 (stereo not drawn) [Ketoprofen]	28.3 min
N[C@@H](Cc1cc(I)c(Oc2cc(I)c(O)c(I)c2)c(I)c1)C(=O)O [L-thyroxine]	25.6 min
CCCCCC=CCC(O)C=CC=CC=CC(O)CCCC(=O)O (stereo not drawn) [Leukotriene B4]	39.5 min
CCCCCC=CCC=CC=CC=CC(SCC(N)C(=O)NCC(=O)O)C(O)CCCC(=O)O (stereo not drawn) [Leukotriene D4]	33 min
CON(C)C(=O)Nc1ccc(Cl)c(Cl)c1 [Linuron]	31.7 min
CCOC(=O)CC(SP(=S)(OC)OC)C(=O)OCC (stereo not drawn) [Malathion]	40.8 min
COC(=O)c1ccc(CNS(C)(=O)=O)cc1S(=O)(=O)NC(=O)Nc1nc(OC)cc(OC)n1 [Mesosulfuron-methyl]	26.6 min
CS(=O)(=O)c1ccc(C(=O)C2C(=O)CCCC2=O)c([N+](=O)[O-])c1 [Mesotrione]	16.5 min
COCC(=O)N(c1c(C)cccc1C)C(C)C(=O)OC (stereo not drawn) [Metalaxyl]	24.3 min
Cc1nnc(-c2ccccc2)c(=O)n1N [Metamitron]	8.55 min
Cc1cccc(C)c1N(Cn1cccn1)C(=O)CCl [Metazachlore]	26.6 min
CNC(=O)N(C)c1nc2ccccc2s1 [Methabenzthiazuron]	19.4 min
